Results: patent publication US5300672A (priority 1992, dated 1994)
Where two headings read alike, the source gives them in different places.

Tests used:
[1] = system: Pseudomonas fluorescens; experiment: Alternate Minimum Inhibitory Concentrations Test (Table 4), Ps.fl; assay type: cell-based; settings: Table 4 alternate test, 250 ppm to 0.8 ppm in TSB, 72 hours, 30° C.; for MIC: Pseudomonas fluorescens, read-out: MIC Ps.fl
Method: The compounds of Examples 1-8, 12-26, 28-33, 36-37, 39-42, 44-109, 111-114, and 116-120 were subjected also to the following alternate biocidal activity test procedures with the results as indicated in Table 4.
The MIC test measures the viability of Pseudomonas fluorescens inoculum in TSB when exposed for 72 hours to varying concentrations of test compound.
A 125 μl aliquot of 10,000 ppm test compound in acetone was added to 4.88 ml of TSB to provide a 250 ppm solution. From this solution, 100 μL was transferred to the first row of two microtiter plate columns. Both replicates and five additional compounds were all serially diluted 1:1 to a final concentration of 0.8 ppm in TSB.
Inoculation was accomplished by diluting a 24 hr Ps fl culture, four mls per 36 mls of phosphate buffer solution. A Dynatech autoinoculator was used to transfer 1.5 μl of this cell suspension to the microtiter plates. The plates were incubated at 30° C. for 3 days before the lowest concentration at which no growth occurs was recorded in the database.

[2] = system: Piricularia oryzae; experiment: whole plant or invertebrate; assay type: in vivo
[3] = system: Puccinia graminis (f. sp. tritici Race 15B-2); experiment: whole plant or invertebrate; assay type: in vivo; settings: Puccinia graminis, 336 h, read-out: % Control WSR
[4] = system: Pseudoperonospora cubensis; experiment: whole plant or invertebrate; assay type: in vivo; settings: for pest or weed control at 50 ppm / pest or weed control at 200 ppm: Pseudoperonospora cubensis, in Cucumis sativus, 168 h, read-out: % Control CDM
[5] = system: Erysiphe graminis (f. sp. tritici); experiment: whole plant or invertebrate; assay type: in vivo
[6] = system: Puccinia recondita (f. sp. tritici Races PKB and PLD); experiment: whole plant or invertebrate; assay type: in vivo
[7] = system: Phytophthora infestans; experiment: whole plant or invertebrate; assay type: in vivo
[8] = system: Pellicularia filamentosa (f. sp. sasiki); experiment: whole plant or invertebrate; assay type: in vivo
[9] = Pyricularia oryzae, read-out: % Control RB, application rate 200 ppm
[10] = Blumeria graminis, read-out: % Control WPM
[11] = Puccinia recondita, 240 h, read-out: % Control WLR
[12] = Phytophthora infestans, in Solanum lycopersicum, 96 h, read-out: % Control TLB
[13] = Pyricularia oryzae, read-out: % Control RB

Compound	MIC [1] [µg/mL]	pest or weed control at 200 ppm [2, 9] [%]	pest or weed control at 200 ppm [4] [%]	pest or weed control at 200 ppm ([8]; 120 h, read-out: % Control RSB) [%]	pest or weed control at 200 ppm [7, 12] [%]	pest or weed control at 200 ppm [5, 10] [%]	pest or weed control at 200 ppm [6, 11] [%]	other results
CCCCCCCCNC(=O)/C=C\SC(=O)c1ccc([N+](=O)[O-])cc1 [Compound 46, N-octyl-cis-3-[(4-nitrobenzoyl)thio]acrylamide]	> 250	75						pest or weed control at 200 ppm [3]: 100%; pest or weed control at 50 ppm [4]: 99%; pest or weed control at 100 ppm [5, 10]: 0%; pest or weed control at 25 ppm [6, 11]: 80%; pest or weed control at 100 ppm ([7]; Phytophthora infestans, in Solanum lycopersicum, 96 h, read-out: % Control TLB, application rate 100 ppm): 95%
CCCCCCCCNC(=O)/C=C\SC(=O)c1sccc1C [Compound 50, N-octyl-cis-3-[(3-methyl-2-thiophene)carbonylthio]acrylamide]	> 250	0						pest or weed control at 200 ppm [3]: 75%; pest or weed control at 50 ppm [4]: 85%; pest or weed control at 100 ppm [7, 12]: 80%
CCCCC/C=C/C(=O)S/C=C\C(=O)NCCCCCCCC [Compound 92, N-octyl-cis-3-[(trans-2-octenoyl)thio]acrylamide]	> 250		85	0	90			pest or weed control at 200 ppm [2, 13]: 70%; pest or weed control at 50 ppm [5, 10]: 50%; pest or weed control at 50 ppm [6, 11]: 50%
CC(C)(C)CC(C)(C)NC(=O)/C=C\SC(=O)c1ccccc1 [Compound 114]	> 250	0	95		90	0	0	pest or weed control at 100 ppm [3]: 50%
CCCCCCCCNC(=O)/C=C\SC(=O)CC1CC(C(C)=O)C1(C)C (stereo not drawn) [Compound 75]	> 250	50	0			0	50	pest or weed control at 12 ppm ([8]; 120 h, read-out: % Control RSB): 0%; pest or weed control at 50 ppm [7, 12]: 90%
CCCCCCCCNC(=O)/C=C\SC(=O)c1c[nH]c2ccccc12 [Compound 77, N-octyl-cis-3-[(3-indole)carbonylthio]acrylamide]	> 250	90	85	0	90	0	80	
CCCCCCCCNC(=O)/C=C\SC(=O)c1ccnc2ccccc12 [Compound 95, N-octyl-cis-3-[(4-quinoline)carbonylthio]acrylamide]	> 250		95	0	80	0	50	pest or weed control at 50 ppm [2, 13]: 70%
CCCCCCCCNC(=O)/C=C\SC(=O)CC=Cc1ccccc1 [Compound 88, N-octyl-cis-3-[(4-phenylbut-3-enoyl)thio]acrylamide]	> 250	90	70		90	0		pest or weed control at 100 ppm [3]: 0%; pest or weed control at 50 ppm [6, 11]: 80%
N-octyl-cis-3-(ferrocenecarbonylthio)acrylamide [Compound 81]								MIC Ps.fl [1]: > 250 Ppm; % Control RB ([2]; in vivo): 75 % Control; % Control CDM ([4]; in vivo): 0 % Control; % Control WPM ([5]; in vivo): 85 % Control; % Control RSB ([8]; in vivo): 0 % Control; % Control WLR ([6]; in vivo): 25 % Control; % Control TLB ([7]; in vivo): 100 % Control
CCCCCCCCNC(=O)/C=C\SC(=O)CCCC(=O)OC [Compound 85, N-octyl-cis-3-[(4-methoxycarbonylbutanoyl)thio]acrylamide]	> 250	90	70	0	90	0	80	
C=CCCC(=O)S/C=C\C(=O)NCCCCCCCC [Compound 83, N-octyl-cis-3-[(4-pentenoyl)thio]acrylamide]	> 250	50	95	0	90	0	50	
